Experimental data: US9409904B2, “Compounds and compositions for use in augmentation of glucose” (YISSUM RESEARCH DEVELOPMENT COMPANY OF THE HEBREW …, priority 2011, dated 2016)
Entries after “also recorded” stand apart in the source; their conditions may differ. Where two headings read alike, the source gives them in different places.

How the values were obtained:
AMPK = test: Thr172 phosphorylation of AMPK in L6 myotubes, Western blot of whole cell lysates; format: cell-based; conditions: for Thr172 phosphorylation in AMPK / AMPK activation (result in words): L6 myotubes
Method: The effect of the various derivatives on the rate of glucose uptake in L6 myotubes was investigated. […] The abundance of GLUT1 and GLUT4 in the plasma membranes of L6 myotubes was determined in cells expressing GLUT-1myc or GLUT-4myc, as described before. […] In addition, the effect of compounds on the glucose—stimulated insulin secretion (GSIS) was investigated. Whole cell lysates were prepared as previously described with some minor modifications: the lysis buffer contained 50 mM Tris-HCl, pH 7.5, 1 mM EDTA, 1 mM EGTA, 1 mM Na3VO4, 150 mM NaCl, 50 mM NaF, 10 mM sodium-glycerophosphate, 5 mM sodium pyrophosphate, and 1 mM PMSF, supplemented with 0.1% (v/v) NP-40, 0.1% (v/v) 2-β-mercaptoethanol, and protease inhibitor cocktail (1:100 dilution). The cells were washed by ice-cold PBS, and 1 ml of lysis buffer was then added and incubated at 4° C. for 40 minutes. The resulting cell lysates were centrifuged at 8,700 g×30 minutes at 4° C. and the resulting supernatant fractions were separated and kept at −20° C. until used. Protein content in the supernatant was determined according to Bradford, using a BSA standard dissolved in the same buffer. […] Samples for Western blot analyses of GLUT1 and GLUT4 were prepared as described in [22]. The proteins were separated on 10% SDS-PAGE and Western blot analyses performed using antibodies according to our previously established protocols.

L6 myotubes = test: [3H]-2-deoxy-D-glucose (dGlc) uptake assay in L6 myotubes; format: cell-based; conditions: for rate of glucose uptake compared to vehicle (DMSO) treated control / activity at 100 µM: 100 μM; for rate of glucose uptake compared to vehicle (DMSO) treated control: basal rate = 100%; for activity at 100 µM: Mean ± SD (n = 3), read-out: Effect on glucose uptake [100 μM] in L6 myotubes (%); for maximal effective concentration, glucose uptake: dose response, 5 h (3) or 12 h (4, 15)
Method: The effect of the various derivatives on the rate of glucose uptake in L6 myotubes was investigated. […] The abundance of GLUT1 and GLUT4 in the plasma membranes of L6 myotubes was determined in cells expressing GLUT-1myc or GLUT-4myc, as described before. […] In addition, the effect of compounds on the glucose—stimulated insulin secretion (GSIS) was investigated.
L6 myotubes were maintained as described in [21]. All experiments were conducted on fully differentiated myotubes.
The rate of [^3H]dGlc uptake in myotubes, in the absence or presence of insulin, was determined as described in [21]. […] […] The cultures were then rinsed 3 times with PBS at room temperature and incubated with PBS, pH 7.4, containing 0.1 mM dGlc and 1.0 μCi/ml [^3H]dGlc for 5 minutes at room temperature. At the end of the assay, the myotubes were lysed in 0.1% (w/v) SDS in water and taken for liquid scintillation.

INS-1E cells = test: Glucose-stimulated insulin secretion (GSIS) from INS-1E cells, insulin RIA; format: cell-based
Method: INS-1E cells (passages 70-90) were grown and maintained as described in Merglen A et al. Endocrinology 2004, 145:667-678.
To investigate the glucose—stimulated insulin secretion (GSIS) and insulin radioimmunoassay-confluent cultures of INS-1E cells were pre-incubated for 30 min in KRBH-BSA buffer containing 3.3 mM glucose. This was followed by 1-h incubation at 3.3 and an additional 1-h at 16.7 mM glucose, as described (1). Aliquots from the incubation buffers were collected, cleared by centrifugation and frozen until used for insulin RIA. Total insulin content in β-cells was similarly measured in aliquots of cell extracts (1). RIA kits rat insulin (Linco Research, St. Charles, Mo.) was used according to manufacturers' protocols.

GLUT1 = test: Total GLUT1 content in whole cell lysates of L6 myotubes, Western blot; format: cell-based
Method: (§1) Whole cell lysates were prepared as previously described with some minor modifications: the lysis buffer contained 50 mM Tris-HCl, pH 7.5, 1 mM EDTA, 1 mM EGTA, 1 mM Na3VO4, 150 mM NaCl, 50 mM NaF, 10 mM sodium-glycerophosphate, 5 mM sodium pyrophosphate, and 1 mM PMSF, supplemented with 0.1% (v/v) NP-40, 0.1% (v/v) 2-β-mercaptoethanol, and protease inhibitor cocktail (1:100 dilution). The cells were washed by ice-cold PBS, and 1 ml of lysis buffer was then added and incubated at 4° C. for 40 minutes. The resulting cell lysates were centrifuged at 8,700 g×30 minutes at 4° C. and the resulting supernatant fractions were separated and kept at −20° C. until used. Protein content in the supernatant was determined according to Bradford, using a BSA standard dissolved in the same buffer. Aliquots (5-60 μg of protein) were mixed with the sample buffer [62.5 mM Tris-HCl, pH 6.8, 2% (w/v) SDS, 10% (v/v) glycerol, 50 mM DTT, and 0.01% (w/v) bromophenol blue], heated at 95° C. for 5 minutes. Samples for Western blot analyses of GLUT1 and GLUT4 were prepared as described in [22]. The proteins were separated on 10% SDS-PAGE and Western blot analyses performed using antibodies according to our previously established protocols.

GLUT4 = test: Total GLUT4 content in whole cell lysates of L6 myotubes, Western blot; format: cell-based
Method: as §1

GLUT4myc = test: Colorimetric determination of surface GLUT4myc in L6 myotubes; format: cell-based
Method: The colorimetric detection of surface GLUT4myc or GLUT1myc in L6 myotubes was performed as described in [7]. Briefly, cultured myotubes were incubated with rabbit anti-C-Myc antibody (1:200 dilution), washed and fixed with 3% formaldehyde, and further interacted with goat HRP-conjugated anti-rabbit IgG (1:2000 dilution). Following the washes, a solution of OPD was added, and the culture plates were taken for absorbance measurement at 492 nM to estimate the relative abundance of GLUT1myc or GLUT4myc on the plasma membrane of the myotubes. The GLUT1myc and GLUT4myc L6 cell cultures were the courtesy of Dr. A. Klip, Hospital for Sick Children (Toronto, ON, Canada).
The capacity of compound 34 to increase the rate of glucose uptake by increasing GLUT4 content in the plasma membrane of myotubes was tested. […] The cells expressing GLUT1myc or GLUT4myc were treated with 25 μM of 34 or DMSO as described above. At the end of the incubation, the cultures were taken for immunodetection of surface GLUT1myc (open bars) or GLUT4myc (black bars), as described herein above.

With `NC1=NC(=O)/C(=C\C=C\c2ccc([N+](=O)[O-])o2)S1` [Compound 2, (E)-2-Amino-5-((E)-3-(5-nitrofuran-2-yl)allylidene)thiazol-4(5H)-one] the “Thr172 phosphorylation in AMPK / AMPK activation (result in words)” value (AMPK) was “marginally induced”, the “rate of glucose uptake in L6 myotubes (result in words)” value (“rate of glucose uptake in L6 myotubes” below) (L6 myotubes) was “slightly increased” and the “concentrations at which effects on glucose uptake and Thr172 phosphorylation were observed” value (L6 myotubes; L6 myotubes, data not shown) was “above 500 μM”.

For `CCOc1ccc2nc(S)sc2c1` [Compound 4, 6-ethoxybenzo[d]thiazole-2-thiol], the “Thr172 phosphorylation in AMPK / AMPK activation (result in words)” value (AMPK) was “significantly induced”, the “persistence of stimulatory effect on glucose uptake” value (L6 myotubes) was 24 h and the “rate of glucose uptake in L6 myotubes” value (L6 myotubes) was “increase”. The “rate of glucose uptake compared to vehicle (DMSO) treated control” value (L6 myotubes) was 172.4%±12.4%, the activity at 100 µM (L6 myotubes; Rattus norvegicus, L6, Table 2) was 172 ± 12.4% and the “maximal effective concentration, glucose uptake” value (L6 myotubes) was 100 µM.

`Nc1nncs1` [Compound 5, 2-amino-1,3,4-thiadiazole] showed an activity at 100 µM (L6 myotubes; Rattus norvegicus, L6, Table 1) of 97.4 ± 2.9%.

`Cc1nnc(N)s1` [Compound 6, 2-amino-5-methyl-1,3,4-thiadiazole] gave an activity at 100 µM (L6 myotubes; Rattus norvegicus, L6, Table 1) of 101 ± 5.5%.

Work on `Cn1cnnc1S` [Compound 7, 3-mercapto-4-methyl-4H-1,2,4-triazole] yielded an activity at 100 µM (L6 myotubes; Rattus norvegicus, L6, Table 1) of 107 ± 7.5%.

`Sc1ncccn1` [Compound 8, 2-mercaptopyrimidine] showed an activity at 100 µM (L6 myotubes; Rattus norvegicus, L6, Table 1) of 100 ± 4.9%.

`Cn1ccnc1S` [Compound 9, 2-mercapto-1-methylimidazole] showed an activity at 100 µM (L6 myotubes; Rattus norvegicus, L6, Table 1) of 93 ± 9.5%.

In the case of `Nc1nccs1` [Compound 10, 2-aminothiazole], the activity at 100 µM (L6 myotubes; Rattus norvegicus, L6, Table 1) is reported as 95.7 ± 5.1%.

`SC1=NCCS1` [Compound 11, 2-mercapto-2-thiazoline] gave an activity at 100 µM (L6 myotubes; Rattus norvegicus, L6, Table 1) of 106 ± 6.8%.

With `Nc1ncc([N+](=O)[O-])s1` [Compound 12, 2-amino-5-nitrothiazole] the activity at 100 µM (L6 myotubes; Rattus norvegicus, L6, Table 1) was 95.1 ± 8.9%.

`c1ccc2scnc2c1` [Compound 13, benzothiazole] showed an activity at 100 µM (L6 myotubes; Rattus norvegicus, L6, Table 2) of 117 ± 9.7%.

With `CCOc1ccc2nc(N)sc2c1` [Compound 14, 6-ethoxybenzothiazol-2-amine] the activity at 100 µM (L6 myotubes; Rattus norvegicus, L6, Table 2) was 111 ± 14.2%.

For `Oc1nc2ccc(Br)cc2s1` [Compound 15, 6-bromo-2-benzothiazolinone], the “Thr172 phosphorylation in AMPK / AMPK activation (result in words)” value (AMPK) was “significantly induced”, the “persistence of stimulatory effect on glucose uptake” value (L6 myotubes) was 24 h and the “rate of glucose uptake in L6 myotubes” value (L6 myotubes) was “increase”. The “rate of glucose uptake compared to vehicle (DMSO) treated control” value (L6 myotubes) was 132.9%±13.8%, the activity at 100 µM (L6 myotubes; Rattus norvegicus, L6, Table 2) was 133 ± 13.8% and the “maximal effective concentration, glucose uptake” value (L6 myotubes) was 100 µM.

For `c1cnc2[nH]nnc2c1` [Compound 16, 1H-1,2,3-triazolo[4,5]pyridine], the activity at 100 µM (L6 myotubes; Rattus norvegicus, L6, Table 2) was 86.7 ± 17.9%.

Molecule `c1ccc2[nH]nnc2c1` [Compound 17, 1H-benzotriazole] has an activity at 100 µM (L6 myotubes; Rattus norvegicus, L6, Table 2) of 87.5 ± 11.4%.

With `Oc1ccc2nc(S)sc2c1` [Compound 19, 2-mercaptobenzothiazol-6-ol] the “rate of glucose uptake in L6 myotubes” value (L6 myotubes) was “did not stimulate”.

In the case of `CCCSc1nc2ccc(O)cc2s1` [Compound 20, 2-(propylthio)benzothiazol-6-ol], the melting point is reported as 67 to 70 °C, the “glucose-stimulated insulin secretion from INS-1E cells (result in words)” value (INS-1E cells) is reported as “augments” and the “glucose stimulated insulin secretion in INS-1E” value (INS-1E cells; 10 μM, indicated time periods) is reported as “increased”. For the same molecule, the glucose-stimulated insulin secretion (INS-1E cells; 25 μM) was “increased”, the “rate of glucose uptake in L6 myotubes” value (L6 myotubes) was “increase” and the “rate of glucose uptake in L6 myotubes” value (L6 myotubes; listed as EMM-45) was “increases; also recorded: induced an increase; also recorded: induces stimulation”.

`CCC(CC)CSc1nc2ccc(O)cc2s1` [Compound 21, 2-(2-ethylbutylthio)benzothiazol-6-ol] showed a melting point of 105 to 110 °C.

In the case of `CCCCSc1nc2ccc(O)cc2s1` [Compound 23, 2-(butylthio)benzothiazol-6-ol], the melting point is reported as 80 to 85 °C.

For `CCOc1ccc2nc(SCCC(=O)O)sc2c1` [Compound 25, 3-(6-ethoxybenzothiazol-2-ylthio)propanoic acid], the melting point was 175 to 178 °C, the “Thr172 phosphorylation in AMPK / AMPK activation (result in words)” value (AMPK) was “activated AMPK” and the “time of maximal (peak) Thr172 phosphorylation in AMPK” value (AMPK; incubation time) was 60 min. For the same molecule, the “rate of glucose uptake in L6 myotubes” value (L6 myotubes) was “increase” and the “increase of glucose uptake in comparison with vehicle-treated cells” value (L6 myotubes; 50 μM, within 5 hours of incubation) was 1.8 fold.

With `CCOc1ccc2nc(S(N)(=O)=O)sc2c1` [Compound 30, 6-ethoxybenzothiazole-2-sulfonamide] the “rate of glucose uptake in L6 myotubes” value (L6 myotubes) was “inactive”.

For `CCOc1ccc2nc(SSc3nc4ccc(OCC)cc4s3)sc2c1` [Compound 31, 1,2-bis(6-ethoxybenzothiazol-2-yl)disulfane], the melting point was 185 to 190 °C, the “persistence of Thr172 phosphorylation of AMPK” value (AMPK; incubation time) was “up to 5 hours” and the “time to induction of Thr172 phosphorylation in AMPK” value (AMPK; incubation time) was no more than 40 min. The “glucose-stimulated insulin secretion from INS-1E cells (result in words)” value (INS-1E cells) was “increases”, the “rate of glucose uptake in L6 myotubes” value (L6 myotubes) was “increase; also recorded: substantially increased” and the Emax (L6 myotubes; Rattus norvegicus, L6, 150 μM within 5 hours of incubation, read-out: maximal effect on rate of glucose uptake, compared with a non-treated control) was 189 ± 21.8%. For the same molecule, the “rate of glucose uptake in L6 myotubes” value (L6 myotubes; listed as EMM-5) was “increases”.

With `c1ccc2[nH]c(SSc3nc4ccccc4[nH]3)nc2c1` [Compound 32, 1,2-di(1H-benziimidazol-2-yl)disulfane] the “rate of glucose uptake in L6 myotubes” value (L6 myotubes) was “no stimulatory effect”.

With `CCCNC(=O)CSc1nc2ccc(OCC)cc2s1` [Compound 33, 2-((6-ethoxybenzothiazol-2-yl)thio)-N-propylacetamide] the “time to significant Thr172 phosphorylation of AMPK” value (AMPK; incubation time) was 5 h, the “rate of glucose uptake in L6 myotubes” value (L6 myotubes) was “increase; also recorded: markedly augmented” and the “increase of rate of glucose uptake” value (L6 myotubes; 100 μM within 5 hours of incubation) was 2 fold.

With “insulin: Human insulin (Actrapid) purchased from Novo Nordisk [reference compound]” the “total content of GLUT1 in myotubes” value (GLUT1) was “Neither compound altered”, the “total content of GLUT4 in myotubes” value (GLUT4) was “Neither compound altered” and the “increase of rate of glucose uptake” value (L6 myotubes; insulin 100 nM, last 20 minutes of incubation) was 45%±13%. For the same molecule, the “time of effect on GLUT4myc translocation to the plasma membrane” value (GLUT4myc) was 30 min and the “abundance of GLUT4myc in the plasma membrane” value (GLUT4myc; 25 μM of 34, insulin) was “increased”.
